Measured values taken from patent US11413278B2, “Compounds and methods for promoting stress resistance” (priority 2015, dated 2022).
Like-named read-outs stand apart in the source and are kept apart here.

Tests used:
human PARP1 = target: T1, human PARP1 (Homo sapiens, UniProt P09874); assay: PARP inhibitor assay (HT Fluorescent Homogeneous PARP Inhibition Assay Kit); assay type: biochemical; conditions: score
T1 construct: purchased Trevigen
How it was run: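 Human PARP1 with NAD and activated DNA, compounds at 10 μM final, 30 min at room temperature in dark. Resazurin/diaphorase cycling mix then added for 1 hr in dark before stop buffer; fluorescent homogeneous kit read-out.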

FOXO3 = assay: qPCR analysis of FOXO3-regulated genes; assay type: cell-based, human; conditions: for fold induction at 10 µM: Homo sapiens; for K = Sestrin induction: score
How it was run: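 WI-38 cells treated with compound at 10 μM for 24 h, followed by Cells-to-Ct RT-qPCR of FOXO3 target genes normalised to B2M, PPIA and GAPDH. FOXO3 or NRF2 dependence tested by prior 10 nM siRNA knockdown (36 h transfection, compound added ~24 h after replating).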

NRF2 = assay: qPCR analysis of NRF2-regulated genes; assay type: cell-based, human; conditions: for fold induction at 10 µM: Homo sapiens
How it was run: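 WI-38 cells treated with compound at 10 μM for 24 hrs, then processed by Cells-to-Ct for RNA isolation, RT and qPCR of NRF2-regulated genes (HMOX1, NQO1, GCLC, GSTM1). Expression normalized to B2M, PPIA and GAPDH; siRNA knockdown of FOXO3 or NRF2 (10 nM) preceded treatment in some runs.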

C. elegans = C. elegans lifespan assays (liquid and plate); assay type: in vivo, Caenorhabditis elegans; conditions: for ILS at 60 µM / ILS at 66 µM: Caenorhabditis elegans
WI-38 cells = conditions: for Percentage of propidium iodide-positive dead cells (no H2O2 stress treatment), at 10 uM: negative control 0.41% ± 0.23%
Experimental: WI-38 cells were seeded on 384-well plates for 24 hrs and then incubated with small molecules for 24 hrs. […] Images were collected on an INCell Analyzer 2000 (GE) and analyzed with the Developer software.

T1 sequence (P09874 whole entry): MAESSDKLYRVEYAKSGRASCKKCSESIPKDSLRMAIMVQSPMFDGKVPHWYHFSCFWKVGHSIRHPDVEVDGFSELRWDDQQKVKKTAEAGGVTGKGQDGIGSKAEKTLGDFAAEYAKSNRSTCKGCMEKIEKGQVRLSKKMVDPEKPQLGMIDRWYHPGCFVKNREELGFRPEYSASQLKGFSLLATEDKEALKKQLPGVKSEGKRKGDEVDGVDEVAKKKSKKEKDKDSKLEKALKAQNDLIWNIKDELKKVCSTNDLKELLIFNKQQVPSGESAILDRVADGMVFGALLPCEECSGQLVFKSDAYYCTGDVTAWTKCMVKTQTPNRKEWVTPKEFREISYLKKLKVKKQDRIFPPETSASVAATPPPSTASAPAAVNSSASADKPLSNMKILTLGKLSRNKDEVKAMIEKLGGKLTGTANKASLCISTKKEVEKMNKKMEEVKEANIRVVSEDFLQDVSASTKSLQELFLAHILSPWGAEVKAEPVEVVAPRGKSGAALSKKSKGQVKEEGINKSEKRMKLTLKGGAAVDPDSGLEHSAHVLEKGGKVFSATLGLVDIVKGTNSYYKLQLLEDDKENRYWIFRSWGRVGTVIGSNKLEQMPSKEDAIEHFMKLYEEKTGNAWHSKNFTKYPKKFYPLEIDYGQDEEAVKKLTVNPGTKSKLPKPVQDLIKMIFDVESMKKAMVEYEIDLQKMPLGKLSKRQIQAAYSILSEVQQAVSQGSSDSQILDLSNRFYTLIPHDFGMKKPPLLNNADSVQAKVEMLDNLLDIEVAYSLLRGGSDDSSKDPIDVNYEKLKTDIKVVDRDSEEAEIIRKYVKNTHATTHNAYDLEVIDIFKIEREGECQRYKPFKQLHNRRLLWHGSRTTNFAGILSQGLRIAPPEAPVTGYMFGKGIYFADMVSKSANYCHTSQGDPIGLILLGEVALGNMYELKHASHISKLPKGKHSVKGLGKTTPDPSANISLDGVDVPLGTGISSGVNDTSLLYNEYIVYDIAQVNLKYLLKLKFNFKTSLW

SMILES: COc1cccc(/C=C2\CN(C)C/C(=C\c3cccc(OC)c3OC)C2=O)c1OC [O23]
- L = PARP inhibition (human PARP1): 0
- Induction of at least two of five FOXO3-regulated genes (SOD2, GADD45A, CAT, DDB1, TXNIP) (FOXO3; 10 μM, 24 hrs, WI-38): induce FOXO3-regulated genes
- SOD2 expression, normalized fold change (FOXO3-regulated gene) (FOXO3; 10 μM, 24 hrs, WI-38 cells, qPCR, normalized to B2M, n = 4): SOD2 2.04 fold
- E = Potential FOXO3 Activation (FOXO3; 2-point score): 2
- Potential FOXO3 Activation (>=2 target genes induced, by >=1.5-fold) (FOXO3; Assay 11(n)): YES
- fold induction at 10 µM (FOXO3; 24 h, Assay 10(m), at 10 uM, qPCR, read-out: Induction of FOXO3-regulated genes: GADD45A normalized fold-change): 7.22
- fold induction at 10 µM (FOXO3; 24 h, Assay 10(m), at 10 uM, qPCR, read-out: Induction of FOXO3-regulated genes: SOD2 normalized fold-change): 2.04
- fold induction at 10 µM (FOXO3; 24 h, Assay 10(m), at 10 uM, qPCR, read-out: Induction of FOXO3-regulated genes: TXNIP normalized fold-change): 0.07
- fold induction at 10 µM (FOXO3; 10 μM, 24 hrs, WI-38 cells, qPCR, normalized to B2M, n = 4, read-out: GADD45A expression, normalized fold change (FOXO3-regulated gene)): 7.22
- fold induction at 10 µM (FOXO3; 10 μM, 24 hrs, WI-38 cells, qPCR, normalized to B2M, n = 4, read-out: TXNIP expression, normalized fold change (FOXO3-regulated gene)): 0.07
- fold induction at 10 µM (FOXO3; WI-38 cells, 10 μM, 24 hrs, n=4, qPCR normalized by B2M, read-out: DDB1 Normalized fold change): 1.26
- fold induction at 10 µM (FOXO3; WI-38 cells, 10 μM, 24 hrs, n=4, qPCR normalized by B2M, read-out: GADD45A Normalized fold change): 7.22
- fold induction at 10 µM (FOXO3; WI-38 cells, 10 μM, 24 hrs, n=4, qPCR normalized by B2M, read-out: SESN1 Normalized fold change): 0.799
- fold induction at 10 µM (FOXO3; fold change, qPCR, WI-38 cells, 10 μM, 24 hrs, read-out: Summary of effects on FOXO3-regulated genes: GADD45A): 7.22
- fold induction at 10 µM (FOXO3; fold change, qPCR, WI-38 cells, 10 μM, 24 hrs, read-out: Summary of effects on FOXO3-regulated genes: TXNIP): 0.07
- fold induction at 10 µM (FOXO3; qPCR, WI-38 cells, 10 μM, n=4, 24 hrs, normalized by B2M, read-out: CAT Normalized fold change): 0.89
- fold induction at 10 µM (FOXO3; qPCR, WI-38 cells, 10 μM, n=4, 24 hrs, normalized by B2M, read-out: SOD2 Normalized fold change): 2.04
- fold induction at 10 µM (FOXO3; qPCR, WI-38 cells, 10 μM, n=4, 24 hrs, normalized by B2M, read-out: TXNIP Normalized fold change): 0.071
- Summary of effects on FOXO3-regulated genes: SOD2 (FOXO3; fold change, qPCR, WI-38 cells, 10 μM, 24 hrs): SOD2 2.04
- K = Sestrin induction (FOXO3): 0
- E = Potential FOXO3 Activation (FOXO3; summary score): 2
- F = Potential NRF2 Activation (NRF2; 2-point score): 0
- fold induction at 10 µM (NRF2; 24 h, Assay 12(o), at 10 uM, qPCR, read-out: Induction of NRF2-regulated genes: GCLC normalized fold-change): 0.67
- fold induction at 10 µM (NRF2; 24 h, Assay 12(o), at 10 uM, qPCR, read-out: Induction of NRF2-regulated genes: GSTM1 normalized fold-change): 0.6
- fold induction at 10 µM (NRF2; 24 h, Assay 12(o), at 10 uM, qPCR, read-out: Induction of NRF2-regulated genes: HMOX1 normalized fold-change): 12.9
- fold induction at 10 µM (NRF2; 24 h, Assay 12(o), at 10 uM, qPCR, read-out: Induction of NRF2-regulated genes: NQO1 normalized fold-change): 0.48
- fold induction at 10 µM (NRF2; rounded fold change, WI-38 cells, 10 μM, 24 hrs (RP11 for Gr-1D, RP29 for Gr-4D), read-out: Summary of effects on NRF2-regulated genes: HMOX1): 12.9
- fold induction at 10 µM (NRF2; rounded fold change, WI-38 cells, 10 μM, 24 hrs (RP29 for Gr-4D), read-out: Summary of effects on NRF2-regulated genes: GSTM1): 0.6
- fold induction at 10 µM (NRF2; rounded fold change, WI-38 cells, 10 μM, 24 hrs (RP29 for Gr-4D), read-out: Summary of effects on NRF2-regulated genes: NQO1): 0.48
- fold induction at 10 µM (NRF2; rounded fold change, WI-38 cells, 10 μM, 24 hrs, read-out: Summary of effects on NRF2-regulated genes: GCLC): 0.67
- fold induction at 10 µM (NRF2; 10 μM, 24 hrs, WI-38 cells, qPCR, normalized to B2M, n = 4, read-out: GCLC expression, normalized fold change (NRF2-regulated gene)): 0.67
- fold induction at 10 µM (NRF2; 10 μM, 24 hrs, WI-38 cells, qPCR, normalized to B2M, n = 4, read-out: GSTM1 expression, normalized fold change (NRF2-regulated gene)): 0.6
- fold induction at 10 µM (NRF2; 10 μM, 24 hrs, WI-38 cells, qPCR, normalized to B2M, n = 4, read-out: HMOX1 expression, normalized fold change (NRF2-regulated gene)): 12.9
- fold induction at 10 µM (NRF2; 10 μM, 24 hrs, WI-38 cells, qPCR, normalized to B2M, n = 4, read-out: NQO1 expression, normalized fold change (NRF2-regulated gene)): 0.48
- fold induction at 10 µM (NRF2; WI-38 cells, 10 μM, 24 hrs, n=4, qPCR normalized by B2M, read-out: GCLC Normalized fold change): 0.668
- fold induction at 10 µM (NRF2; WI-38 cells, 10 μM, 24 hrs, n=4, qPCR normalized by B2M, read-out: GSTM1 Normalized fold change): 0.595
- fold induction at 10 µM (NRF2; WI-38 cells, 10 μM, 24 hrs, n=4, qPCR normalized by B2M, read-out: HMOX1 Normalized fold change): 12.9
- fold induction at 10 µM (NRF2; WI-38 cells, 10 μM, 24 hrs, n=4, qPCR normalized by B2M, read-out: NQO1 Normalized fold change): 0.477
- F = Potential NRF2 Activation (NRF2; summary score): 0
- ILS at 60 µM (C. elegans; 60 μM, in liquid, wild type, with FuDR, 1.0 × 10^9 bacteria/ml, read-out: relative change of mean lifespan vs control, Trial 1): 36.2%
- ILS at 60 µM (C. elegans; 60 μM, in liquid, wild type, with FuDR, 2.5 × 10^9 bacteria/ml, read-out: relative change of mean lifespan vs control, Trial 2): 17.4%
- ILS at 60 µM (C. elegans; 60 μM, on plate, CF512 temperature-sensitive sterile animals, without FuDR, 1.0 × 10^11 bacteria/ml, read-out: relative change of mean lifespan vs control, Trial 4): -0.3%
- ILS at 60 µM (C. elegans; 60 μM, on plate, CF512 temperature-sensitive sterile animals, without FuDR, 2.0 × 10^10 bacteria/ml, read-out: relative change of mean lifespan vs control, Trial 3): 21.6%
- ILS at 66 µM (C. elegans; Assay 2(z), at 66 uM, 1.0 × 10^9 bacteria/ml, wild type + FuDR (2012 July), read-out: Lifespan assay in liquid): 36.2%
- ILS at 66 µM (C. elegans; Assay 3(aa), at 66 uM, 2.5 × 10^9 bacteria/ml, wild type + FuDR, read-out: Lifespan assay in liquid): 17.4%
- ILS at 66 µM (C. elegans; Assay 4(ab), at 66 uM, 2.0 × 10^10 bacteria/ml, CF512 worms, no FuDR, read-out: Lifespan assay on plates): 21.6%
- ILS at 66 µM (C. elegans; Assay 5(ac), at 66 uM, 1.0 × 10^11 bacteria/ml, CF512 worms, no FuDR, read-out: Lifespan assay on plates): -0.3%
- Extension of C. elegans' lifespan (qualitative) (C. elegans; in at least 3 to 4 trials, group range ~10% to ~50%): could extend animal's lifespan
- Trials with lifespan extension (C. elegans; positive of total trials): 3 of 4
- O = Life span- extending scores in worms (C. elegans; score scale 0 to 2, 4 to 6 independent trials): 2 (2 for observed in more than 2 trials)
- M = Lifespan-extending scores in worms (C. elegans; summary score): 2 (2 for observed in more than 2 trials)
- PI cell-death imaging without H2O2 (indicating potential toxicity) (WI-38 cells; Assay 8(k), without H2O2, at 10 uM): YES
- PI-positive dead cells under normal conditions (WI-38 cells; WI-38, no H2O2, control 0.4±0.2%): 2.6%±1.4%
- Percentage of propidium iodide-positive dead cells (no H2O2 stress treatment), at 10 uM (WI-38 cells): 2.61% ± 1.37%,

SMILES: Oc1ccccc1-c1noc(-c2ccccc2O)n1 [O27]
- L = PARP inhibition (human PARP1): 0
- E = Potential FOXO3 Activation (FOXO3; 2-point score): 0
- K = Sestrin induction (FOXO3): 1
- E = Potential FOXO3 Activation (FOXO3; summary score): 0
- F = Potential NRF2 Activation (NRF2; 2-point score): 0
- F = Potential NRF2 Activation (NRF2; summary score): 0
- ILS at 66 µM (C. elegans; read-out: Lifespan assay on plates): -69.3%
- ILS at 60 µM (C. elegans; read-out: relative change of mean lifespan vs control, Trial 1): -35.1%
- ILS at 60 µM (C. elegans; read-out: relative change of mean lifespan vs control, Trial 2): -17.8%
- ILS at 60 µM (C. elegans; read-out: relative change of mean lifespan vs control, Trial 3): -69.3%
- M = Lifespan-extending scores in worms (C. elegans; in vivo): 0
- O = Life span- extending scores in worms (C. elegans; in vivo): 0
- Percentage of propidium iodide-positive dead cells (no H2O2 stress treatment), at 10 uM (WI-38 cells): 0.50% ± 0.17%,
